Experimental data: ChEMBL document CHEMBL5338818, “Discovery of the First Potent, Selective, and In Vivo Efficacious Polo-like Kinase 4 Proteolysis Targeting Chimera Degrader for the Treatment of TRIM37-Amplified Breast Cancer” (J Med Chem, 2023)
Activity calls are given as the source filed them. No cut-off for these calls is given here.

How the values were obtained:
[1] = Apparent permeability across basolateral to apical side in human Caco-2 cells at 2 uM incubated for 2 hrs by LC-MS/MS analysis; type: ADME, cell-based
[2] = Metabolic stability in human liver microsomes assessed as compound remaining at 100 uM incubated for 60 mins in presence of NADPH by LC-MS/MS analysis; type: ADME, Microsome; settings: read-out: Stability
[3] = molecular target: CYP2C9 (Homo sapiens, UniProt P11712); assay: Inhibition of CYP2C9 in human liver microsomes at 10 uM using sulfaphenazole as substrate preincubated for 10 mins followed by NADPH regenerating system addition and measured after 15 mins by LC-MS/MS analysis relative to control; type: ADME, Microsome; settings: time 25 min
CYP2C9, sequence (P11712 whole entry): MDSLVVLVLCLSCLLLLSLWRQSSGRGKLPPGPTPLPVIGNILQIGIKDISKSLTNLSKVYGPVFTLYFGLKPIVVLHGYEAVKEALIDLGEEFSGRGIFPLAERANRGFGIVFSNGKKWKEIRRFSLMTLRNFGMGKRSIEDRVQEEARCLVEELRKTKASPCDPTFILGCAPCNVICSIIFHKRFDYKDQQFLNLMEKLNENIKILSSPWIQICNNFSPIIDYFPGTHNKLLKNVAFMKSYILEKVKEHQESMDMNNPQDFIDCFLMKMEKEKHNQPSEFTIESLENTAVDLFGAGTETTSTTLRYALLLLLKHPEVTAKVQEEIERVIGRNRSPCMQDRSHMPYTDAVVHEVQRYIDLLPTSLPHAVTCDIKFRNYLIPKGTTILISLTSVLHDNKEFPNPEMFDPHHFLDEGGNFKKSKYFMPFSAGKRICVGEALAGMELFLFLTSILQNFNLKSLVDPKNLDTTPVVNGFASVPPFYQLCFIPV

[4] = Stability in human plasma assessed as compound remaining at 100 uM after 30 mins by LC-MS/MS analysis (reference value: 100%); type: ADME, cell-free; settings: read-out: Stability
[5] = Stability in human plasma assessed as compound remaining at 100 uM after 120 mins by LC-MS/MS analysis (reference value: 100%); type: ADME, cell-free; settings: read-out: Stability
[6] = Tmax in ICR mouse at 20 mg/kg, ip measured upto 24 hrs by LC-M/MS analysis; type: ADME, organism-based; settings: in vivo
[7] = molecular target: T1, CYP1A2 (Homo sapiens, UniProt P05177); assay: Inhibition of CYP1A2 in human liver microsomes at 10 uM using alpha-Naphthoflavone as substrate preincubated for 10 mins followed by NADPH regenerating system addition and measured after 15 mins by LC-MS/MS analysis relative to control; type: ADME, Microsome; settings: time 25 min
T1 sequence (P05177 whole entry): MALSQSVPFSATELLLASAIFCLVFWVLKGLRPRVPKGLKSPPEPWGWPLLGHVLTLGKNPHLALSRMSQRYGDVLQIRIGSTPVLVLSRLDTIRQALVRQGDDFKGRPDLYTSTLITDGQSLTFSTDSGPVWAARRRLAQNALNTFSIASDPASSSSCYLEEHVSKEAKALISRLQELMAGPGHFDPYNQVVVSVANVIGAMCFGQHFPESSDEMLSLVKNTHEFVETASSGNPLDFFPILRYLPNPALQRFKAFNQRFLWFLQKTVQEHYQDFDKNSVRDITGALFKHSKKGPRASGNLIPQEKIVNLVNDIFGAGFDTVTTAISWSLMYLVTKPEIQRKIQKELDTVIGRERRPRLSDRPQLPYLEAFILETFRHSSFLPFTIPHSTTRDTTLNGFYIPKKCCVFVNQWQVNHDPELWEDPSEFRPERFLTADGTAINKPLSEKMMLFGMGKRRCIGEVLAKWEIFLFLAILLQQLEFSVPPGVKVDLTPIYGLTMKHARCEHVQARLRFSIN

[8] = tested on: MCF7; assay: Inhibition of human MCF7 cells migration incubated for 48 hrs by inverted microscopic analysis; type: functional, cell-based; settings: dose 0.1-1 µM
[9] = tested on: MCF7; assay: Induction of apoptosis in human MCF7 cells at 0.3 to 3 uM incubated for 36 hrs by Annexin V-FITC//propidium iodide staining based flow cytometry analysis; type: functional, cell-based; settings: dose 0.3-3 µM
[10] = Half life in ICR mouse at 20 mg/kg, ip measured upto 24 hrs by LC-M/MS analysis; type: ADME, organism-based; settings: in vivo
[11] = molecular target: T2, Protein cereblon/Serine/threonine-protein kinase PLK4 (Homo sapiens, UniProt O00444+Q96SW2); assay: Protac activity at CRBN/PLK4 in human MCF7 cells at 1 uM by Western blot analysis; type: cell-based
T2 sequence (Q96SW2 whole entry, looked up, one chain of several): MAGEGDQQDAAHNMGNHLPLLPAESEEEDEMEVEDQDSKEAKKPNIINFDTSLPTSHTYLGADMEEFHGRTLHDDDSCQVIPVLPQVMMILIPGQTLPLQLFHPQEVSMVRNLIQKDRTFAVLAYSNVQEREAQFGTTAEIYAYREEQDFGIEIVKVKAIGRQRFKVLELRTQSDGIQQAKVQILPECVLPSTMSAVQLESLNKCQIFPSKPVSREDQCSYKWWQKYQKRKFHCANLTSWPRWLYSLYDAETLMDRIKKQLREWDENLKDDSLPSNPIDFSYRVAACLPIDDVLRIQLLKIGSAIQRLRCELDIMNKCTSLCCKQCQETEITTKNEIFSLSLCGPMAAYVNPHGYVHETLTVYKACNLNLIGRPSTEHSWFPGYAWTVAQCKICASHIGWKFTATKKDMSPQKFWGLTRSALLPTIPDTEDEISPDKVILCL

[12] = Observed mean […] time infinity in ICR mouse at 20 mg/kg, ip measured upto 24 hrs by LC-M/MS analysis; type: ADME, organism-based; settings: in vivo
[13] = molecular target: T2, Protein cereblon/Serine/threonine-protein kinase PLK4; assay: Protac activity at CRBN/PLK4 in human MCF7 cells at 1 uM in presence of BAF by Western blot analysis; type: cell-based
[14] = Toxicity in nu/nu mouse xenografted with human MCF7 cells assessed as effect on lungs at 20 mg/kg, ip administered once every other day for 21 days by HE staining based analysis; type: organism-based; settings: in vivo, 504 h, time 21 day
[15] = Stability in human plasma assessed as half life at 100 uM after 120 mins by LC-MS/MS analysis; type: ADME, cell-free
[16] = Metabolic stability in mouse liver microsomes assessed as intrinsic clearance at 100 uM incubated for 60 mins in presence of NADPH by LC-MS/MS analysis; type: ADME, Microsome; settings: read-out: CLH
[17] = Toxicity in nu/nu mouse xenografted with human MCF7 cells assessed as effect on heart at 20 mg/kg, ip administered once every other day for 21 days by HE staining based analysis; type: organism-based; settings: in vivo, 504 h, time 21 day
[18] = tested on: MCF7; assay: Induction of cell cycle arrest at G2 phase in human MCF7 cells at 0.3 to 3 uM incubated for 36 hrs by Annexin V-FITC//propidium iodide staining based flow cytometry analysis; type: functional
[19] = Metabolic stability in rat liver microsomes assessed as intrinsic clearance at 100 uM incubated for 60 mins in presence of NADPH by LC-MS/MS analysis; type: ADME, Microsome; settings: read-out: CLH
[20] = Observed mean […] time infinity in ICR mouse at 2 mg/kg, iv measured upto 24 hrs by LC-M/MS analysis; type: ADME, organism-based; settings: in vivo
[21] = molecular target: T3, Serine/threonine-protein kinase PLK4 (Homo sapiens) (UniProt O00444); assay: Inhibition of PLK4 in human MCF7 cells assessed as reduction in FBXW5 inactivation by Western blot analysis; type: cell-based; settings: dose 1-1000 nM
T3 sequence (whole entry): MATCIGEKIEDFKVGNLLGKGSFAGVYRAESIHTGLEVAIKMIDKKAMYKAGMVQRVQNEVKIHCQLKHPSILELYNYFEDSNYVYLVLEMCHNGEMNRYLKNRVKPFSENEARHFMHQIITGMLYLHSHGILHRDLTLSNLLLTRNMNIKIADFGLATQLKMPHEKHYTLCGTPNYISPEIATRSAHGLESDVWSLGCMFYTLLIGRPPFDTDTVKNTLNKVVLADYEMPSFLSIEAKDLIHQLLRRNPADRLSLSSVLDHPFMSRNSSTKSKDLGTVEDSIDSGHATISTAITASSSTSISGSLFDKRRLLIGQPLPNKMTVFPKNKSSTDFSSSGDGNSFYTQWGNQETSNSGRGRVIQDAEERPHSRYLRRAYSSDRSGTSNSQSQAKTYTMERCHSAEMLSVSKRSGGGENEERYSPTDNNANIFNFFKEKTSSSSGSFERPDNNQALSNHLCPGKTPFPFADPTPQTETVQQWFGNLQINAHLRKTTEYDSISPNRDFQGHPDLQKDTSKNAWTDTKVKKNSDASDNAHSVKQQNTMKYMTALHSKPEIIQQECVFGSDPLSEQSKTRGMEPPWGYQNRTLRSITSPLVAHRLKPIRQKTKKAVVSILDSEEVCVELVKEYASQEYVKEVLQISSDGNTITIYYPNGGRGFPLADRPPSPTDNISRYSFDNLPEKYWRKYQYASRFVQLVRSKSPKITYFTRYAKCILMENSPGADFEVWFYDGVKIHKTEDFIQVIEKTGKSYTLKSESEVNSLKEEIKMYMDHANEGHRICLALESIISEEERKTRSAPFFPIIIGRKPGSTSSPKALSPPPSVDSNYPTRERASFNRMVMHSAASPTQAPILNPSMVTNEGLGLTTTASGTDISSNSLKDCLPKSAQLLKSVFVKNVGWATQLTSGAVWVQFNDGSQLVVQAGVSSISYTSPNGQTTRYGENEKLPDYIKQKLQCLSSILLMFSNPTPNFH

Compound: Cc1cc(Nc2nc(NCc3ccc(F)cc3F)nc3c2cnn3C2CCN(C(=O)C3CCN(c4ccc5c(c4)C(=O)N(C4CCC(=O)NC4=O)C5=O)CC3)CC2)n[nH]1 (stereo unspecified)
- Papp B→A at 2 h, 2 µM [1]: 0.97 ×10⁻⁶ cm/s
- remaining at 1 h, 100 µM [2]: 51.7%
- inhibition at 0.25 h, 10 µM [3]: 32.5%
- remaining at 0.5 h, 100 µM [4]: 96.6%
- remaining at 2 h, 100 µM [5]: 69.9%
- Tmax [6]: 1.42 h
- inhibition at 0.25 h, 10 µM [7]: 10.4%
- inhibition [8]: Dose-Dependent Effect
- Activity [9]: Dose-Dependent Effect
- half-life [10]: 4.66 h
- Activity [11]: Active
- Time [12]: 3.93 h
- Activity [13]: inactive
- Activity [14]: Non-Toxic
- half-life at 100 µM [15]: > 2 h
- microsomal CLint at 100 µM [16]: 17.1 µL/min/mg
- Activity [17]: Non-Toxic
- Activity [18]: Dose-Dependent Effect
- microsomal CLint at 100 µM [19]: 20.9 µL/min/mg
- Time [20]: 2.29 h
- inhibition [21]: Dose-Dependent Effect
